Reference: article PMC7322046 (Heliyon, 2020)

Tests used:
[1] = test system: human dipeptidyl peptidase IV (DPP4); details: dipeptides; cited from earlier work
Human recombinant DPP4 = Human recombinant DPP4 (Homo sapiens, UniProt P27487); assay: DPP4 inhibition assay; format: biochemical; details: test tripeptide 10 μg/ml; 100 μM Gly-Pro-AMC, 37 °C, 30 min, pH 8.0
Sequence of Human recombinant DPP4 (P27487 whole entry): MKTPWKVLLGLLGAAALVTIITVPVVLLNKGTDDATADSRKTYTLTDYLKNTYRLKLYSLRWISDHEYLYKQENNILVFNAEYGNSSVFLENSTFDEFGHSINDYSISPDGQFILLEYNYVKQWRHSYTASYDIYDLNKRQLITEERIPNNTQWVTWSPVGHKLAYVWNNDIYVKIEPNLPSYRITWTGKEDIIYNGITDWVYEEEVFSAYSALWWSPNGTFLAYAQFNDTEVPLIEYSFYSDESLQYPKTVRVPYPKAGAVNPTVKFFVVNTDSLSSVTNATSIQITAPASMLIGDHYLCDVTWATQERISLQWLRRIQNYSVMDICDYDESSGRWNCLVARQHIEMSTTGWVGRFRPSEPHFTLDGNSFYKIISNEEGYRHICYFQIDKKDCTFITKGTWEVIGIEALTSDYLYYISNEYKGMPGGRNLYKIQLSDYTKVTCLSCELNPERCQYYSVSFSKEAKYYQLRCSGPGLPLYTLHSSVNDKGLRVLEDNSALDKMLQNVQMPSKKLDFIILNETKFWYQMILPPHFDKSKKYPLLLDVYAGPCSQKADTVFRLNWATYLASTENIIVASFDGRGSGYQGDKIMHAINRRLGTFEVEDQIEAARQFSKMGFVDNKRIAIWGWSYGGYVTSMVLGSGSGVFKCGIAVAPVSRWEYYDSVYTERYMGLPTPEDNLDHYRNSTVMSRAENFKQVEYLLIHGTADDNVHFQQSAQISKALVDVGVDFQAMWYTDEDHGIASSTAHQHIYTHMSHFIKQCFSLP

| Substance | DPP4 inhibitory activity (in words) [1] | inhibition ratio (Human recombinant DPP4) [%] |
| --- | --- | --- |
| Ile-Pro | high inhibitory activity |  |
| Val-Pro | high inhibitory activity |  |
| Val-Pro-Leu [VPL] |  | 31.0 |
